From paper PMC10017709, “Structural basis of selective cannabinoid CB2 receptor activation” (Nature Communications, 2023)
“And” between values parts separate entries of the source, which are not always exact repeats. Equal values may be shown once.

What was measured:
CB2R-Quadruple^TM1,7 = CB2R-Quadruple^TM1,7 (Homo sapiens, UniProt P34972, C40S/K279T/K33Q/V36I); assay: [3H]CP55,940 displacement assay, CB2R quadruple mutant; assay type: binding; details: QuadrupleTM1,7, individual replicates
CB1R I267ECL2L [1] = molecular target: T1, CB1R I267ECL2L (Homo sapiens, UniProt P21554, I267L); assay: [3H]CP55,940 displacement assay, CB1R I267L mutant; assay type: binding
hCB1R WT = hCB1R WT (Homo sapiens, UniProt P21554); assay: [35S]GTPγS G protein activation assay, CB1R WT; assay type: biochemical; details: CB1R WT
CB1R I267ECL2L [2] = molecular target: T1, CB1R I267ECL2L; assay: [35S]GTPγS assay, CB1R I267L mutant; assay type: biochemical
CB2R WT [3] = molecular target: T2, CB2R WT (Homo sapiens, UniProt P34972); assay: [35S]GTPγS G protein activation assay, CB2R WT; assay type: biochemical; details: for Emax (%): CB2R WT; for [35S]GTPγS binding, percentage of CP55,940: individual replicates
CB1R-L359^6.51V [4] = molecular target: T3, CB1R-L359^6.51V (Homo sapiens, UniProt P21554, L359V); assay: [35S]GTPγS assay, CB1R L359V mutant; assay type: biochemical
hCB2R = molecular target: T4, hCB2R (Homo sapiens, UniProt P34972); assay: [3H]RO6957022 displacement assay; assay type: binding; details: for percentage specific [3H]RO6957022 binding (displacement): individual replicates
T4 construct: host or cells: CHO-K1 (CHOK1_hCB2bgal, PathHunter), membranes

CB1R-L359^6.51V [5] = molecular target: T3, CB1R-L359^6.51V; assay: [3H]CP55,940 displacement assay, CB1R L359V mutant; assay type: binding; details: CB1R L3596.51V; 10 µM ligand; replicates 1-3
CB2R WT [6] = molecular target: T2, CB2R WT; assay: [3H]CP55,940 displacement assay, CB2R WT; assay type: binding; details: for percentage specific [3H]CP55,940 binding: CB2R - WT, individual replicates
CB2R-I110^3.29L = CB2R-I110^3.29L (Homo sapiens, UniProt P34972, I110L); assay: [3H]CP55,940 displacement assay, CB2R I110L mutant; assay type: binding; details: for percentage specific [3H]CP55,940 binding: I1103.29L, individual replicates
CB1R QuadrupleTM1,7 = molecular target: T5, CB1R QuadrupleTM1,7 (Homo sapiens, UniProt P21554, I119V/Q116K/S123C/T377K); assay: [3H]CP55,940 displacement assay, CB1R quadruple mutant; assay type: binding
T5 construct: The WT CB1R and CB2R genes were subcloned into vector pcDNA3.1; HA signal peptide (N); expressed in transfected cells; host or cells: HEK293T (transient, membrane homogenates)
T5 sequence (P21554 whole entry Q116K/I119V/S123C/T377K): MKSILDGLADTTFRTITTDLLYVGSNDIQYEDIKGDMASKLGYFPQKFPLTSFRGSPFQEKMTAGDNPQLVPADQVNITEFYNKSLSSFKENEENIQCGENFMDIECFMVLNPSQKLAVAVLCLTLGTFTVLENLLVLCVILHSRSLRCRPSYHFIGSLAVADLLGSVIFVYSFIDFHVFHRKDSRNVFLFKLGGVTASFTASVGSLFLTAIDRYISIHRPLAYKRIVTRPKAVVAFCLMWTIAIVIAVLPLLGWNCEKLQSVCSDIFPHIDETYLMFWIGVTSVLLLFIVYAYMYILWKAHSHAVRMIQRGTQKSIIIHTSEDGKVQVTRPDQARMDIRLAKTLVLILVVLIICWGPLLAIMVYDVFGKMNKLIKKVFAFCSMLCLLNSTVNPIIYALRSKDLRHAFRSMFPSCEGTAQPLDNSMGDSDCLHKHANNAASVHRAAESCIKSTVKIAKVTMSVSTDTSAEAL

Chain of hCB1R WT (P21554 whole entry): as the sequence (P21554 whole entry Q116K/I119V/S123C/T377K) above, with K116Q, V119I, C123S, K377T counted along it
T1 sequence (P21554 whole entry I267L): as the sequence (P21554 whole entry Q116K/I119V/S123C/T377K) above, with K116Q, V119I, C123S, I267L, K377T counted along it
T2 sequence (P34972 whole entry): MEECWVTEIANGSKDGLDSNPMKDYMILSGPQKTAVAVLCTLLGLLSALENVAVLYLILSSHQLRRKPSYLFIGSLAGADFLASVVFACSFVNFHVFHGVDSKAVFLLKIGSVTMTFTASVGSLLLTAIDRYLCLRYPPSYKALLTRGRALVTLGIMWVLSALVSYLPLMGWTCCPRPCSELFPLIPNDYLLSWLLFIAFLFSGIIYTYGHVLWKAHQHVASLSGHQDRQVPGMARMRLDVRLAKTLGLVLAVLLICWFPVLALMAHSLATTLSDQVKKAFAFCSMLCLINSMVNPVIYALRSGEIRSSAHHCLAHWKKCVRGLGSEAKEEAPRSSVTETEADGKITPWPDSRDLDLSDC
T4 sequence (P34972 whole entry): as above
Chain of CB2R-Quadruple^TM1,7 (P34972 whole entry K33Q/V36I/C40S/K279T): as the sequence (P34972 whole entry) above, with K33Q, V36I, C40S, K279T counted along it
T3 sequence (P21554 whole entry L359V): as the sequence (P21554 whole entry Q116K/I119V/S123C/T377K) above, with K116Q, V119I, C123S, L359V, K377T counted along it
Chain of CB2R-I110^3.29L (P34972 whole entry I110L): as the sequence (P34972 whole entry) above, with I110L counted along it

percentage specific [3H]CP55,940 binding (CB2R-Quadruple^TM1,7; log [ligand] (M) -7): 75.38% and 92.54% and 80.13%
percentage specific [3H]CP55,940 binding (CB2R-Quadruple^TM1,7; log [ligand] (M) -8): 120.94% and 110.56% and 172.31%
percentage specific [3H]CP55,940 binding (CB2R-Quadruple^TM1,7; log [ligand] (M) -9): 139.03% and 122.04% and 167.10%
percentage specific [3H]CP55,940 binding (CB2R-Quadruple^TM1,7; log [ligand] (M) -10): 103.18% and 81.86% and 136.81%
Displacement (%) of [3H]CP55,940 (CB1R I267ECL2L [1]; CB1R I267L, 10 µM compound): 25 ± 3%
Agonist-mediated activation (hCB1R WT; 10 µM agonist): 1.0 ± 0.1 fold over its basal
Agonist-mediated activation (CB1R I267ECL2L [2]; CB1R I267L, 10 µM agonist): 1.0 ± 0.0 fold over its basal
Emax (%) (CB2R WT [3]; maximum effect at 10 µM compared to WT (Suppl. Table 6)): 103 ± 3%
Emax (%) (CB2R WT [3]; maximum effect compared to CP55,940): 76 ± 1%
EC50 (CB2R WT [3]; [35S]GTPγS, HEK293T membranes transiently expressing CB2R WT): 126 nM
[35S]GTPγS binding, percentage of CP55,940 (CB2R WT [3]; log [agonist] (M) -5): 76.96% and 72.92% and 77.27%
[35S]GTPγS binding, percentage of CP55,940 (CB2R WT [3]; log [agonist] (M) -6): 47.32% and 54.96% and 57.48%
[35S]GTPγS binding, percentage of CP55,940 (CB2R WT [3]; log [agonist] (M) -7): 8.09% and 19.22% and 13.61%
[35S]GTPγS binding, percentage of CP55,940 (CB2R WT [3]; log [agonist] (M) -8): 7.23% and 9.98% and 7.81%
[35S]GTPγS binding, percentage of CP55,940 (CB2R WT [3]; log [agonist] (M) -9): -12.88% and -8.32% and -11.10%
[35S]GTPγS binding, percentage of CP55,940 (CB2R WT [3]; log [agonist] (M) -10): -4.61% and 18.64% and -19.45%
Agonist-mediated activation (CB1R-L359^6.51V [4]; CB1R L359V, 10 µM agonist): 1.1 ± 0.1 fold over its basal
Ki (hCB2R; CHOK1_hCB2bgal membranes, 10 °C): 9.7 nM
percentage specific [3H]RO6957022 binding (displacement) (hCB2R; log [agonist] (M) -5): -32.33% and 4.32% and 0.17%
percentage specific [3H]RO6957022 binding (displacement) (hCB2R; log [agonist] (M) -6): -14.04% and 1.26% and 2.78%
percentage specific [3H]RO6957022 binding (displacement) (hCB2R; log [agonist] (M) -7): 18.14% and 30.43% and 22.20%
percentage specific [3H]RO6957022 binding (displacement) (hCB2R; log [agonist] (M) -8): 86.67% and 64.68% and 56.33%
percentage specific [3H]RO6957022 binding (displacement) (hCB2R; log [agonist] (M) -9): 136.04% and 85.34% and 92.04%
percentage specific [3H]RO6957022 binding (displacement) (hCB2R; log [agonist] (M) -10): 150.08% and 77.03% and 85.93%
percentage specific [3H]CP55,940 binding (CB2R WT [6]; log [ligand] (M) -5): 11.20% and 5.48% and 13.91%
percentage specific [3H]CP55,940 binding (CB2R WT [6]; log [ligand] (M) -6): 40.37% and 13.48% and 13.16%
percentage specific [3H]CP55,940 binding (CB2R WT [6]; log [ligand] (M) -7): 87.52% and 46.85% and 48.46%
percentage specific [3H]CP55,940 binding (CB2R WT [6]; log [ligand] (M) -8): 156.63% and 87.43% and 104.52%
percentage specific [3H]CP55,940 binding (CB2R WT [6]; log [ligand] (M) -9): 143.94% and 83.15% and 100.75%
percentage specific [3H]CP55,940 binding (CB2R WT [6]; log [ligand] (M) -10): 162.62% and 107.24% and 130.29%
Ki (CB2R WT [6]; read-out: pKi (converted)): 31.6 nM
pKi (CB2R-I110^3.29L; CB2R I110L mutant, [3H]CP55,940): remained similar
percentage specific [3H]CP55,940 binding (CB2R-I110^3.29L; log [ligand] (M) -5): 3.91% and 2.37% and 4.51%
percentage specific [3H]CP55,940 binding (CB2R-I110^3.29L; log [ligand] (M) -6): 9.98% and 9.21% and 3.23%
percentage specific [3H]CP55,940 binding (CB2R-I110^3.29L; log [ligand] (M) -7): 39.17% and 30.03% and 31.46%
percentage specific [3H]CP55,940 binding (CB2R-I110^3.29L; log [ligand] (M) -8): 86.59% and 79.23% and 85.93%
percentage specific [3H]CP55,940 binding (CB2R-I110^3.29L; log [ligand] (M) -9): 105.91% and 105.22% and 104.46%
percentage specific [3H]CP55,940 binding (CB2R-I110^3.29L; log [ligand] (M) -10): 128.52% and 108.89% and 100.89%
Ki (CB2R-I110^3.29L; read-out: pKi (converted)): 12.6 nM
Displacement (%) of [3H]CP55,940 (CB1R QuadrupleTM1,7; CB1R Quadruple TM1,7, 10 µM compound): 26 ± 10%
SMILES: CC(C)CN1C(=O)CN(Cc2ccc(-c3ccc(F)c(CNC4CCOCC4)n3)cc2)C1=O [LEI-102, 1-(4-(5-fluoro-6-(((tetrahydro-2H-pyran-4-yl)amino)methyl)pyridin-2-yl)benzyl)-3-isobutylimidazolidine-2,4-dione]
percentage specific [3H]CP55,940 binding (CB1R I267ECL2L [1]; CB1R I267ECL2L, 10 µM ligand, replicates 1-3): 70.66 percentage and 79.50 percentage and 75.81 percentage
G protein activation, fold over its basal (hCB1R WT; individual replicates): 0.954 fold over its basal and 1.145 fold over its basal and 0.987 fold over its basal
G protein activation, fold over its basal (CB1R I267ECL2L [2]; CB1R I267ECL2L, individual replicates): 1.03 fold over its basal and 1.063 fold over its basal and 1.016 fold over its basal
G protein activation, fold over its basal (CB1R-L359^6.51V [4]; CB1R L3596.51V, individual replicates): 1.125 fold over its basal and 1.294 fold over its basal and 0.998 fold over its basal
percentage specific [3H]CP55,940 binding (CB1R-L359^6.51V [5]): 87.28 percentage and 69.23 percentage and 69.34 percentage
percentage specific [3H]CP55,940 binding (CB1R QuadrupleTM1,7; CB1R QuadrupleTM1,7, 10 µM ligand, replicates 1-3): 70.97 percentage and 58.02 percentage and 92.08 percentage
